Assay results published in patent publication US20250375417A1, “OREXIN RECEPTOR 2 (OX2R) AGONIST FOR USE IN NARCOLEPSY TYPE 1 (NT1)” (TAKEDA PHARMACEUTICAL COMPANY LIMITED, priority 2024, published 2025).

Columns and labels:
Type in all cases: in vivo, human
participants with NT1 [1] = experiment: Epworth Sleepiness Scale (ESS), Phase 2 NT1 trial
From the text: (§1) In some aspects of the methods described herein, the subject experiences a lower Epworth Sleepiness Scale (ESS) total score after a treatment period compared to an untreated subject. The ESS is a subjective, self-administered scale that has been validated and used extensively as a key endpoint in studies in patients with narcolepsy to measure excessive daytime sleepiness (EDS). The ESS provides individuals with 8 different situations of daily life and asks them how likely they are to fall asleep in those situations (scored 0 to 3) and to try to imagine their likelihood of dozing even if they have not actually been in the identical situation; the scores are summed to give an overall score of 0 to 24. Higher scores indicate stronger subjective daytime sleepiness, and scores below 10 are considered to be within the reference range.
In certain aspects, the ESS is administered to assess sleep propensity on selected days indicated in the Schedule of Activities for the trial. Participants are asked to evaluate their subjective sleepiness based on recalling their most recent daily life experiences.
Randomization was stratified by region. Starting on the morning of Day 1, the study drug was administered at approximately the same time each day for 8 or 12 weeks. […]

participants with NT1 [2] = experiment: Daily sleep diaries (disturbing dreams), Phase 2 NT1 trial
From the text: (§2) Polysomnography (PSG) was collected at baseline and after 27 and 54 days of treatment. Sleep was manually scored following AASM guidelines; sleep metrics were extracted then computed by whole night and by quarter-night. Continuous accelerometry (Empatica EmbracePlus watch) allowed assessment of sleep in a naturalistic manner at home. Daily sleep diaries were used to capture subjective reports. Mixed effects models were fit with treatment, quarter-night, visit, and their interactions as fixed effects and random intercepts per subject. A reference PSG dataset (Vilela M, et al. J Sleep Res 2024; e14216) from CHU Montpellier (49 clinical controls and 114 patients with NT1, all drug-free) was analyzed to establish DNS characteristics of NT1.
At baseline, participants reported disturbing dreams, which contribute to DNS, an average of 2.8 nights/week (no significant differences across cohorts) in response to “Did you have disturbing dreams, nightmares, or frightening dreams during the night?” These reductions potentially relate to improvements in REM regulation with Compound A.

participants with NT1 [3] = experiment: At-home continuous accelerometry of sleep, Phase 2 NT1 trial
From the text: as §2
Consistent with sleep diaries, adverse events of mild to moderate insomnia were reported by 48% of Compound A-treated participants and most resolved within 1 week. […] Conclusion: Treatment with Compound A may help normalize REM architecture and reduce disturbing dreams without changing WASO or deep sleep.

participants with NT1 [4] = experiment: Clinical and Patient Global Impression (CGI, PGI), Phase 2 NT1 trial; settings: Week 8, patients treated with Compound A
From the text: The Patient Global Impression Scale-Severity Scale (PGI-S) provides a participant-perceived assessment of overall symptoms (4-point Likert-type scale, “normal to “severe”) administered at baseline while the Patient Global Impression-Improvement Scale (PGI-I) provides a participant-perceived summary of global treatment effect on daytime sleepiness and cataplexy (7-point Likert-type scale, “very much improved” to “very much worse”) administered at different points during treatment.
The Clinical Global Impression Scale provides an overall clinician-determined summary measure of a participant's treatment experience that takes into account all available information, including knowledge of the participant's history, psychosocial circumstances, symptoms, behavior, and the impact of the symptoms on the participant's ability to function. The assessment consists of various subscales. One is the Clinical Global Impression-Severity (CGI-S). The CGI-S assesses the severity of overall narcolepsy symptoms. It uses a 7-point Likert-type scale ranging from “normal, not at all ill” to “among the most extremely ill patients.”
Another subscale is the Clinical Global Impression-Improvement (CGI-I), which assesses improvement of symptoms. The CGI-I asks clinicians to rate the extent to which their patients' current overall narcolepsy symptoms are improved (compared with the start of the study). […]

participants with NT2 = experiment: ESS total score, Phase 2 NT2 trial; settings: not statistically significant (p>0.05)
From the text: as §1
Randomization was stratified by region. Starting on the morning of Day 1, the study drug was administered at approximately the same time each day for 8 weeks.
In this study, the interventions includes: • Dose Regimen 1:2 mg followed by 2 mg approximately 3 hours apart. • Dose Regimen 2:2 mg followed by 5 mg approximately 3 hours apart or 7 mg once daily. • Other products required for the study: placebo.
Eligible participants were age 18-70 years, with Epworth Sleepiness Scale (ESS) score>12 and no other current EDS-related medical conditions. […]

CCS(=O)(=O)N[C@@H]1[C@H](Cc2cccc(-c3cc(F)cc(F)c3)c2F)N(C(=O)C(C)(C)O)CC1(F)F [Compound A, N-{(2S,3R)-4,4-difluoro-1-(2-hydroxy-2-methylpropanoyl)-2-[(2,3′,5′-trifluoro[1,1′-biphenyl]-3-yl)methyl]pyrrolidin-3-yl}ethanesulfonamide]
Change from baseline to Week 8 in ESS versus placebo (participants with NT1 [1]; all dose groups, adjusted for multiple comparisons): statistically significant changes | Participants with ESS≤10 (participants with NT1 [1]; weeks 4 and 8 (FIG. 4)): Most participants achieved ESS total score≤10 | Rate of disturbing dreams, average estimated change from baseline (participants with NT1 [2]; across all treated cohorts and weeks): −1.5 nights/week | Rate of disturbing dreams, range of estimated change from baseline (participants with NT1 [2]; range across all treated cohorts and weeks): −1.8 to −0.8 nights/week | Number of nocturnal awakenings, awakenings >5 min and longest sleep bout (accelerometry) (participants with NT1 [3]; 2 mg/2 mg cohort (FIG. 7)): small but statistically significant reductions | At-home nighttime TST and WASO, change from baseline (participants with NT1 [3]; accelerometry, overall (FIG. 7)): minimal changes overall | At-home TST (participants with NT1 [3]; week 1 only, 2 mg/5 mg and 7 mg QD cohorts, resolving over time): reduced TST was observed | Patients much/very much improved on the PGI and CGI (participants with NT1 [4]): > 70% | ESS total score change from baseline to Week 8 versus placebo (participants with NT2; 2 mg/2 mg): −0.32 points | ESS total score change from baseline to Week 8 versus placebo (participants with NT2; 2/5 mg): −3.06 points
